How the values were obtained:
[1] = test system: thermal nociceptive response; assay: Tail flick assay for thermal nociceptive response; type: in vivo, female BALB/c mice; conditions: fractions 10 mg/kg p.o., diclofenac sodium 50 mg/kg i.p.
Description: b. In-vivo efficacy study in pain model using the tail flick Assay for assessment of thermal nociceptive response in female BALB/c mice
Tail Flick Test: Prior to starting the test, the intensity of the beam was adjusted to produce a latency of approximately 3-6 sec. The was performed three times for each animal, at 3- to 5-min intervals, and the average of the three times recorded as the average reaction time (seconds). The light beam was delivered about 15 mm from the tip of the tail for mice. To minimize the chance of tissue trauma from heat exposure, a cut-off time of 10 sec was established, at which time the animal was removed from the test (Curr. Protoc. Neurosci., 2007, 41, 8.9.1). Mice were treated with diclofenac sodium (50 mg/kg. i.p.), a standard analgesic drug, CS-016-C2-F2-F2-F2 (10 mg/kg. p.o), CS-016-C2-F2-F3-F2 (10 mg/kg, p.o). and CS-016-B2 (10 mg/kg, p.o) each group contained three animals (n=3).
Tail Flick Assay in Female BALB/c Mice. […] The data were analysed using graph-pad prism software (8.0.2). […]

[2] = test system: paclitaxel (PT) induced neuropathic pain; assay: Randall Selitto test for mechanical hyperalgesia in paclitaxel induced neuropathic (cancer) pain model; type: in vivo, male BALB/c mice; conditions: paclitaxel 2 mg/kg i.p. (pain induction), all groups; FIGS. 7a and 7b
Description: a. In-Vivo Efficacy Study in Cancer Pain Model Using the Randall Selitto Test for Assessment of Mechanical Hyperalgesia in Male BALB/c Mice
Animals: Male BALB/C mice of weight range 25-30 g were used for evaluation of CS-016-B1 in paclitaxel (PT) induced neuropathic pain. Animals were housed under a 12-hour light/dark cycle in a temperature (65-75° F.; ^˜18-23° C.) and humidity-controlled (40-60%) environment. They were supplied with free access to the food and water (ad libitum). Prior to initiation of study all the animals were acclimatized for one week under standard laboratory conditions, animals were drug naive with no prior procedures performed. All testing were performed from 1 to 4 p.m. […]
Development of neuropathic pain in mice: Neuropathic pain in BALB/C mice was induced by intraperitoneal (i.p.) administration of Paclitaxel (PT) at 2 mg/kg for consecutive 5 days (Sci. Rep., 2014, 4, 1). Before paclitaxel injection baseline values of pain threshold for all the animals were recorded. […]
Experimental protocol: The present study was comprised of five experimental groups. […] Pain threshold was assessed using Randall Selitto for assessment of mechanical hyperalgesia at different time points like 0, 5th, 10th, and 15th days post dosing. […]
Randall Selitto Test: The nociceptive withdrawal threshold was assessed by using the Randall-Selitto algesimeter (Analgesy-Meter, Ugo Basile). […]

| SMILES | latency time at 4 h relative to baseline ([1]; 4 h after treatment) | time till which the effect on latency time sustained [1] | mechanical threshold compared with the baseline data [2] |
| --- | --- | --- | --- |
| O=C(O)Cc1ccccc1Nc1c(Cl)cccc1Cl [diclofenac sodium] | comparable to that of baseline data | 3 h | – |
| CC(=O)O[C@H]1C(=O)[C@@]2(C)[C@H]([C@H](OC(=O)c3ccccc3)[C@]3(O)C[C@H](OC(=O)[C@H](O)[C@@H](NC(=O)c4ccccc4)c4ccccc4)C(C)=C1C3(C)C)[C@]1(OC(C)=O)CO[C@@H]1C[C@@H]2O [paclitaxel] | – | – | significant reduction in mechanical threshold |

— patent publication US20250312357A1, “PROCESS OF PHYTOCA[…] FORMULATION AND USE IN THE MANAGEMENT OF PAIN” (COUNCIL OF SCIENTIFIC & INDUSTRIAL RESEARCH, priority 2022, published 2025)
